Assay: gel formation in contact with water / dissolution media
Assay type: physicochemical
Settings: solid forms
From the text: The marketed product comprises lenvatinib mesylate. It is known that the lenvatinib mesylate salt gelifies when in contact with dissolution media, this may cause a delay in its release. EP1797881 discloses a pharmaceutical composition that solved the above problems using an alkaline excipient with a pH of 8 a 5% w/w aqueous solution to reduce the degradation of the active substance and silicic acid to inhibit gelation. Sodium carbonates are described as suitable alkaline excipient.
Gelification limits the dissolution of API and can influence bioavailability of the drug.

**Q.** With lenvatinib besylate as the substance, how does the “tendency to form a gel when in contact with water” value read?
**A.** The value was “don't tend to form a gel”.

From patent US12102630B2 (Synthon B.V., priority 2018, dated 2024)
